Key:
[1] = molecular target: KDR (VEGFR2) (Homo sapiens (Human), UniProt P35968); test: Luminescence-based KDR kinase assay (Km ATP), ADP-Glo; format: biochemical; conditions: compound at 100 nM concentration
Description: Kinase activity of KDR was measured using the ADP-Glo system (Promega). Compounds were diluted in DMSO at 100 μM. 20 nL of compound or DMSO only (high control, HC) were added to a 384-well plate (OptiPlate-384, PerkinElmer) using an Echo550 liquid handler (Labcyte). 15 μL of kinase solution (10 mM MgCl2, 0.01% Brij-35, 2 mM DTT, 0.05% BSA, 1 mM EGTA, 0.05% CHAPSO, 50 mM HEPES pH 7.5, and 0.665 nM KDR [Carna Biosciences]) were added to each well of the 384-well plate containing the compounds. No enzyme control wells were included (low control, LC). The plate was incubated at room temperature for 30 minutes. 5 μL of a second solution containing 10 mM MgCl2, 0.01% Brij-35, 2 mM DTT, 0.05% BSA, 1 mM EGTA, 50 mM HEPES pH 7.5, 6 μM Peptide 22 (Perkin Elmer, Cat No 760366), and 400 μM ATP were added to each well to start the kinase reaction. The plate was incubated for 90 minutes at room temperature. 20 μL of ADP-Glo reagent (Promega) were then added to each well and the plate was incubated for 40 minutes at room temperature. […] During this step, ADP was converted to ATP, a substrate for luciferase, to produce luminescence signal. Luminescence was measured on an Envision plate reader (Perkin Elmer). Luminescence signal positively correlates with kinase activity. The percent inhibition of kinase activity was calculated as follows: percent inhibition=100×(LumHC−LumSample)/(LumHC−LumLC). […]

[2] = test system: phosphorylated ERK (pERK); test: Detection of phosphorylated ERK (pERK), AlphaLISA in A375 cells; format: cell-based; conditions: Homo sapiens, A-375, 4 h, four hours incubation, inhibition of ERK phosphorylation, read-out: PERK ELISA (IC50)
Description: A375 cells were counted and seeded at 10,000 cells/well in 384 well plates (Corning 3764) and allowed to adhere overnight.
Compounds were dissolved and serially diluted in DMSO. The compounds were then added, mixed, and incubated for four hours at 37° C., 5% CO2. Compounds were added using four-fold dilutions at final concentrations ranging from 10 μM to 0.01 nM. DMSO only and 10 uM staurosporine were added as high and low controls.
Following the four-hour incubation with compounds, cell lysates were prepared and AlphaLISA assay measuring phosphorylated ERK was performed. Media was removed using the Apricot Designs pipettor. Lysis buffer was made from 1× AlphaLISA SureFire Assay Kit (AlphaLISA SureFire Ultra pERK 12 (Thr202/Tyr204) ALSU-PERK-A50K) lysis buffer with protease and phosphatase inhibitors. Cells were lysed by adding 10 uL to all the wells and mixed for 40 minutes on a plate shaker. 10 uL cell lysate was transferred to a new Optiplate (PerkinElmer 6007290) and incubated with 5 uL 1× acceptor mix for 2 hours in the dark. 5 uL of 1× donor mix was added to all wells and mixed by shaking followed by overnight incubation in the dark.
pERK AlphaLISA signal was read on the Envision using standard AlphaLISA settings. Percent inhibition of ERK phosphorylation was calculated by % Inhibition=100×(LumHC−LumSample)/(LumHC−LumLC). The low and high controls (LC/HC) are generated from lysate from wells with cells treated with DMSO or […] Staurosporine (BioAustralis, cat #BIA-S1086), […]. IC50 values were calculated by fitting the Curve using XLfit (v5.3.1.3), equation 201: Y=Bottom+(Top−Bottom)/(1+10^((Log IC50−X)*HillSlope)).

[3] = molecular target: ABL1 (F317I) (Homo sapiens (Human), UniProt P00519, F317I); test: Radioactivity-based ABL kinase assay; format: biochemical; conditions: 100 μM 33P-ATP
Description: (§1) The following kinase assay was based on Anastassiadis et al (2011) Nat Biotech, 29:1039-1045. Briefly, ABL kinase substrate (ABLtide: EAIYAAPFAKKK; Genscript) was freshly prepared in reaction buffer (20 mM HEPES pH 7.5, 10 mM MgCl2, 1 mM EGTA, 0.02% Brij-35, 0.02 mg/ml BSA, 0.1 mM Na3VO4, 2 mM DTT, and 1% DMSO) to a final substrate concentration of 20 μM. ABL wild type and ABL mutant kinases were added to the substrate solution and mixed to the final enzyme concentrations shown in Table 3 below.
(§2) Serial dilutions of compounds were prepared in 100% DMSO Compounds or DMSO only (vehicle control) were then added to the kinase reaction mixture and incubated for 20 minutes at room temperature. 100 μM ^33P-ATP (specific activity 10 μCi/μl) was then added to the kinase reaction mixture to initiate the kinase reaction. This mixture was incubated for 2 hours at room temperature. Radioactivity was then measured by radioisotope filter-binding. Kinase activity data were expressed as the percent remaining kinase activity in test samples compared to vehicle control reactions. IC50 values and curve fits were obtained using a nonlinear regression model with a sigmoidal dose response (Prism GraphPad Software).

[4] = molecular target: ABL1 (F317L) (Homo sapiens (Human), UniProt P00519, F317L); test: Radioactivity-based ABL kinase assay; format: biochemical; conditions: 100 μM 33P-ATP
Description: as §1, §2

Chain of ABL1 (F317I) (P00519 whole entry F317I): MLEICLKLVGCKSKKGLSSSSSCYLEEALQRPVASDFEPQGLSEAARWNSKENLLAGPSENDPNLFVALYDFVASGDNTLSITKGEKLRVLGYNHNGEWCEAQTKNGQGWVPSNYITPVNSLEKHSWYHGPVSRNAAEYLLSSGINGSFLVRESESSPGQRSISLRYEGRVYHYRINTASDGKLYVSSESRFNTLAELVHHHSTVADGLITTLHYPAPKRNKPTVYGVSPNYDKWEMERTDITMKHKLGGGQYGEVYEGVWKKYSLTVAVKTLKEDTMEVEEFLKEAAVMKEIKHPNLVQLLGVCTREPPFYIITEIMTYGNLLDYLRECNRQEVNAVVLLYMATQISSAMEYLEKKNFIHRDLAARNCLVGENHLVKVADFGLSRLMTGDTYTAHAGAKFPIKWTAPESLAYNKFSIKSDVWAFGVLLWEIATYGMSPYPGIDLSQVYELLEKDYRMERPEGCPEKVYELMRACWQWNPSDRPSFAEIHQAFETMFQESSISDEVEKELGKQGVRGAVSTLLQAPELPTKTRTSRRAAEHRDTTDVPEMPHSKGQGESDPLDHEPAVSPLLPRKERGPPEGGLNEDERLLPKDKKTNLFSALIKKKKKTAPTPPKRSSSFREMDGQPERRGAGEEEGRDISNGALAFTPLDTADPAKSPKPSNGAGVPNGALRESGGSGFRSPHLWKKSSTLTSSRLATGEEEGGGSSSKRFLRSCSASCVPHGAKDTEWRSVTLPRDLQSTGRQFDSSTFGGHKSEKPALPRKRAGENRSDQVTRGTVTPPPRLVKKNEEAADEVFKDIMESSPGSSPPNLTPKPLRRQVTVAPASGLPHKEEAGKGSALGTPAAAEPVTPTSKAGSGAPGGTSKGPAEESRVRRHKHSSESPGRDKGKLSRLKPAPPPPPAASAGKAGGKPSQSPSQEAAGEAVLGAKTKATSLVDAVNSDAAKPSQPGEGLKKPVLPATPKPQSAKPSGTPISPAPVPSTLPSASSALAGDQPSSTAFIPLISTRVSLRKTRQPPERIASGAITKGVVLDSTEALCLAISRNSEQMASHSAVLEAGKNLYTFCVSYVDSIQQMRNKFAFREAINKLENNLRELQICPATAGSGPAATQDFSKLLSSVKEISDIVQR
Chain of ABL1 (F317L) (P00519 whole entry F317L): as the sequence (P00519 whole entry F317I) above, with I317L counted along it
Chain of KDR (VEGFR2) (P35968 20-1356): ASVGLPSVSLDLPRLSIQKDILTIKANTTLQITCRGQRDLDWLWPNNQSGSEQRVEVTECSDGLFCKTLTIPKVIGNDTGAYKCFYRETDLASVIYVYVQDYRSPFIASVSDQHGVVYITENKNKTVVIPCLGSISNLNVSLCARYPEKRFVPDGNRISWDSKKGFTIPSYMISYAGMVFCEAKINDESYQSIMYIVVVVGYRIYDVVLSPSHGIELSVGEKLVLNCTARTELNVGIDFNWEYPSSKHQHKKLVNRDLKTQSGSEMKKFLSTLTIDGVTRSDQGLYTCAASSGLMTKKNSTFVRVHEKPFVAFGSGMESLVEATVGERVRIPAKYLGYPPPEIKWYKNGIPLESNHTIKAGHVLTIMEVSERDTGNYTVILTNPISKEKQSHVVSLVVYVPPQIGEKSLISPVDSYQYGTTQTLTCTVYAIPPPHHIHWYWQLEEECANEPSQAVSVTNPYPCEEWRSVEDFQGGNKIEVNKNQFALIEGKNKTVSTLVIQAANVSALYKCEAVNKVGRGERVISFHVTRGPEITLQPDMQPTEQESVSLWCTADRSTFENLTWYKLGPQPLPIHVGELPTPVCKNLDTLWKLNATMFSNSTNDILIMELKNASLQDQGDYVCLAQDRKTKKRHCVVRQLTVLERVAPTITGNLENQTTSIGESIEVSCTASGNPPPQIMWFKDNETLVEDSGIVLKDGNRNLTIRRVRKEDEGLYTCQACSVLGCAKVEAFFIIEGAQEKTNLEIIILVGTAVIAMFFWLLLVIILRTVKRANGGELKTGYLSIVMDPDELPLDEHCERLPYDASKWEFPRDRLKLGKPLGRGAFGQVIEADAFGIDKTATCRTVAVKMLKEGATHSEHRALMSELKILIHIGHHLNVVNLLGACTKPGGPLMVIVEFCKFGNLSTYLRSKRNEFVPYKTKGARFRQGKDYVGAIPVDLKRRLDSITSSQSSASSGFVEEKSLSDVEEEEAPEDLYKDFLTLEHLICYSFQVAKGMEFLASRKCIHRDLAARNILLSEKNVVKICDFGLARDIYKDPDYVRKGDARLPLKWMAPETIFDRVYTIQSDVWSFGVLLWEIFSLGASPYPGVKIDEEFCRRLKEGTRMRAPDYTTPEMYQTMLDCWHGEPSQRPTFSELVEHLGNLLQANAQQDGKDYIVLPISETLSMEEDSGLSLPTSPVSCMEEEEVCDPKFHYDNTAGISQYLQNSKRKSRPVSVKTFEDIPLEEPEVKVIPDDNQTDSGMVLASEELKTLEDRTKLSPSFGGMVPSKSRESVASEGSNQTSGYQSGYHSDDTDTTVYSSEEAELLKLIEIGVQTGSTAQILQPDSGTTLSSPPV

Row | Compound | inhibition at 0.1 µM [1] | IC50 [2] | IC50 [3] | IC50 [4]
1 | Cc1c(F)cncc1-c1cc2cnc(NC(=O)C3CC3)cc2n(C)c1=O [Compound 2, N-[3-(5-fluoro-4-methylpyridin-3-yl)-1-methyl-2-oxo-1,6-naphthyridin-7-yl]cyclopropanecarboxamide] | 32% | 189 nM | 47 nM | 17 nM
2 | Cc1c(F)cncc1-c1cc2cnc(NC(=O)[C@@H]3C[C@@H]3F)cc2n(C)c1=O [Compound 28, (1S,2S)-2-fluoro-N-[3-(5-fluoro-4-methylpyridin-3-yl)-1-methyl-2-oxo-1,6-naphthyridin-7-yl]cyclopropane-1-carboxamide] | 27% | 146 nM | 114 nM | 107 nM

From patent US20240287062A1, “NAPHTHYRIDONE COMPOUNDS FOR INHIBITION OF RAF KINASES AND/OR BCR-ABL TYROSINE KINASES” (Enliven Inc., priority 2021, published 2024)
